Laboratory results: patent publication US7892754B2, “Hepatitis B virus pre-S1 derived synthetic polypeptides and uses thereof” (priority 2001, dated 2011)
Ends that are not written are not given here. Peptide text beside a SMILES is read from it. * marks the point of attachment. Myristoyl = CCCCCCCCCCCCCC(=O)*

Legend:
[1] = test system: HBV; assay: Inhibition of HBV infection of human hepatocytes, RNA analysis (Northern blot); type: cell-based; conditions: myristoylation and C-terminal truncation of pre-S1 peptides
Excerpt: (§1) Fragments of normal adult human liver were obtained from patients undergoing hepatic resection for liver metastases (the fragments were taken at a distance from the metastasis in macroscopically normal liver). Access to this biopsy material was in agreement with French laws and satisfied the requirements of the French National Ethics Committee. Hepatocytes were isolated by the procedure of Guguen-Guillouzo and Guillouzo and cultured in H medium supplemented with 3.5×10^−6 M hydrocortisone hemisuccinate, 2 mM L-glutamine, 50 mg of gentamicin per litre, 2% dimethyl sulfoxide, 5% adult human serum, and 5% FCS. Three days after seeding, the cells were infected.
It was prepared as described previously. Differentiated cells were incubated with the concentrated infectious source, 10-fold diluted in culture medium supplemented with 5% PEG 8000 (Sigma), for 20 h at 37° C. as described previously (Gripon et al., 1988; Gripon et al., 1993). […]
(§2) Polypeptide competition assays were performed by pre-incubating cells with the analyzed polypeptide for 30 min, at 37° C., prior to the addition of the infectious source.
Total cellular RNA was extracted by Total SV RNA kit (Promega, France), fractionated on a 1.5% agarose gel and analyzed by standard Northern blot procedure (Sambrook et al., 1989). […]

[2] = test system: HBV; assay: Polypeptide competition assay: inhibition of HBV infection of human hepatocyte cultures, HBsAg ELISA in supernatant; type: cell-based; conditions: for inhibitory activity against HBV infection, comparison of C-terminally truncated peptides: 0.8 to 800 nM; for effect on HBV infectivity (HBsAg secretion): FIG. 1
Excerpt: as §1
As an infectious inoculum, a 50-fold concentrated culture medium of HepG2 clone 2.2.15 cells was used, because of an unlimited supply and a constant quality.
It was prepared as described previously. Differentiated cells were incubated with the concentrated infectious source, 10-fold diluted in culture medium supplemented with 5% PEG 8000 (Sigma), for 20 h at 37° C. as described previously (Gripon et al., 1988; Gripon et al., 1993). Control cultures were incubated with 5% PEG and 25% FCS diluted in phosphate-buffered saline (PBS) instead of the infectious source. At the end of the incubation, cells were washed three times with the culture medium and maintained in the presence of 2% DMSO and 5×10^−5 M hydrocortisone hemisuccinate and harvested at indicated times.
as §2
HBsAg was detected in the medium by an ELISA kit (Monolisa AgHBs plus) obtained from Bio-Rad Laboratories. Values are expressed in ng/ml of supernatant or percent of control (absence of peptide).

[3] = test system: DHBV; assay: In vivo DHBV infection inhibition in ducks (Dot Blot of viral DNA, Western Blot of L protein in serum); conditions: for L protein of DHBV in serum (Western Blot): 35 days post-infection, FIG. 6; for viral DNA in serum (Dot Blot): day 28 post-infection; for viral DNA in serum (Dot Blot) / viremia (Dot Blot of viral DNA in serum): FIG. 5; for viremia (Dot Blot of viral DNA in serum): ducks injected simultaneously with DHBV and peptide, days 9 and 15 post-infection
Protocol: Ducks are simultaneously injected with DHBV and duck preS Myr 2-41 (DpreS2-41^myr), heron preS Myr 2-44 (HepreS2-44^myr), human preS Myr 2-68 (HupreS2-68^myr), duck preS Myr 2-21 (DpreS2-21^myr) or ddH2O. The viremia of infected animals is assessed by Dot Blot analysis of viral DNA, 5, 9, 15 and 28 days post-infection.

[4] = test system: DHBV; assay: In vitro DHBV infection of primary duck hepatocytes; type: cell-based
[5] = HBsAg 7 days after infection, FIG. 2
[6] = 800 nM, HBsAg 7 days after infection, FIG. 2
[7] = 1 μM peptide, HBsAg 14 days post-infection
[8] = doses lower than 800 nM, FIG. 2
[9] = 8 μM, HBsAg 8 days after infection, FIG. 3

Compound: CCCCCCCCCCCCCC(=O)NCC(=O)N[C@@H](CCC(N)=O)C(=O)N[C@@H](CC(N)=O)C(=O)N[C@@H](CC(C)C)C(=O)N[C@@H](CO)C(=O)N[C@H](C(=O)N[C@@H](CO)C(=O)N[C@@H](CC(N)=O)C(=O)N1CCC[C@H]1C(=O)N[C@@H](CC(C)C)C(=O)NCC(=O)N[C@@H](Cc1ccccc1)C(=O)N[C@@H](Cc1ccccc1)C(=O)N1CCC[C@H]1C(=O)N[C@@H](CC(=O)O)C(=O)N[C@@H](Cc1c[nH]cn1)C(=O)N[C@@H](CCC(N)=O)C(=O)N[C@@H](CC(C)C)C(=O)N[C@@H](CC(=O)O)C(=O)N1CCC[C@H]1C(=O)N[C@@H](C)C(=O)N[C@@H](Cc1ccccc1)C(=O)N[C@@H](CCCNC(=N)N)C(=O)N[C@@H](C)C(=O)N[C@@H](CC(N)=O)C(=O)N[C@H](C(=O)N[C@@H](C)C(=O)N[C@@H](CC(N)=O)C(=O)N1CCC[C@H]1C(=O)N[C@@H](CC(=O)O)C(=O)N[C@@H](Cc1c[nH]c2ccccc12)C(=O)N[C@@H](CC(=O)O)C(=O)N[C@@H](Cc1ccccc1)C(=O)N[C@@H](CC(N)=O)C(=O)N1CCC[C@H]1C(=O)N[C@@H](CC(N)=O)C(=O)N[C@@H](CCCCN)C(=O)N[C@@H](CC(=O)O)C(=O)N[C@H](C(=O)N[C@@H](Cc1c[nH]c2ccccc12)C(=O)N1CCC[C@H]1C(=O)N[C@@H](CC(=O)O)C(=O)N[C@@H](C)C(=O)N[C@@H](CC(N)=O)C(=O)N[C@@H](CCCCN)C(=O)N[C@H](C(=O)NCC(=O)O)C(C)C)[C@@H](C)O)[C@@H](C)O)[C@@H](C)O [HBV Myr PreS 2-48]
- inhibitory activity against HBV infection by RNA analysis [1]: highest inhibitory activity
- inhibitory activity against HBV infection, comparison of C-terminally truncated peptides [2, 5]: highest inhibitory activity

Compound: HBV Myr PreS 2-78: myristoylated HBV pre-S1 peptide, amino acids 2-78
- inhibitory activity against HBV infection [2, 6]: very efficient
- effect on HBV infectivity (HBsAg secretion) [2, 7]: almost completely abolish it
- inhibitory activity against HBV infection [2, 8]: less active
- effect on HBV infectivity (HBsAg secretion) ([2]; lower doses than 1 μM): partly inhibitory

Compound: CCCCCCCCCCCCCC(=O)NCC(=O)N[C@@H](CCC(N)=O)C(=O)N[C@@H](Cc1c[nH]cn1)C(=O)N1CCC[C@H]1C(=O)N[C@@H](C)C(=O)N[C@@H](CCCCN)C(=O)N[C@@H](CO)C(=O)N[C@@H](CCSC)C(=O)N[C@@H](CC(=O)O)C(=O)N[C@H](C(=O)N[C@@H](CCCNC(=N)N)C(=O)N[C@@H](CCCNC(=N)N)C(=O)N[C@H](C(=O)N[C@@H](CCC(=O)O)C(=O)NCC(=O)NCC(=O)N[C@@H](CCC(=O)O)C(=O)N[C@H](C(=O)N[C@@H](CC(C)C)C(=O)N[C@@H](CC(C)C)C(=O)O)[C@@H](C)CC)[C@@H](C)CC)C(C)C [DpreS2-21^myr] (Myristoyl-GQHPAKSMDVRRIEGGEILL-OH)
- L protein of DHBV in serum (Western Blot) [3]: not detected
- viral DNA in serum (Dot Blot) [3]: decreased or no longer detectable
- viremia (Dot Blot of viral DNA in serum) [3]: transitory viremia
- in vitro inhibitory activity towards DHBV infection ([4]; primary duck hepatocytes): no in vitro inhibitory activity

Compound: CCCCCCCCCCCCCC(=O)NCC(=O)N[C@@H](CCC(N)=O)C(=O)N[C@@H](CC(N)=O)C(=O)N[C@@H](CC(C)C)C(=O)N[C@@H](CO)C(=O)N[C@H](C(=O)N[C@@H](CO)C(=O)N[C@@H](CC(N)=O)C(=O)N1CCC[C@H]1C(=O)N[C@@H](CC(C)C)C(=O)NCC(=O)N[C@@H](Cc1ccccc1)C(=O)N[C@@H](Cc1ccccc1)C(=O)N1CCC[C@H]1C(=O)N[C@@H](CC(=O)O)C(=O)N[C@@H](Cc1c[nH]cn1)C(=O)N[C@@H](CCC(N)=O)C(=O)N[C@@H](CC(C)C)C(=O)N[C@@H](CC(=O)O)C(=O)N1CCC[C@H]1C(=O)N[C@@H](C)C(=O)N[C@@H](Cc1ccccc1)C(=O)N[C@@H](CCCNC(=N)N)C(=O)N[C@@H](C)C(=O)N[C@@H](CC(N)=O)C(=O)N[C@H](C(=O)N[C@@H](C)C(=O)O)[C@@H](C)O)[C@@H](C)O [HBV Myr PreS 2-28]
- inhibition of HBV infection [2, 6]: 50%
- inhibitory activity against HBV infection [2, 9]: almost completely blocks HBV infection
- inhibitory activity against HBV infection, comparison of C-terminally truncated peptides [2, 5]: largely less active

Compound: HBV PreS 1-78: non myristoylated peptide, pre-S1 amino acids 1 to 78 of Hepatitis B virus subtype ayw
- effect on HBV infectivity (HBsAg secretion) [2, 7]: only a faint effect

Compound: HBV Myr PreS 2-68: myristoylated HBV pre-S1 peptide, amino acids 2-68
- infection of ducks with DHBV ([3]; FIGS. 5 and 6): seems to delay but do not prevent infection
- inhibitory activity against HBV infection [2, 6]: very efficient
- inhibitory activity against HBV infection [2, 8]: less active

Compound: CCCCCCCCCCCCCC(=O)NCC(=O)N[C@@H](CCC(N)=O)C(=O)N[C@@H](CC(N)=O)C(=O)N[C@@H](CC(C)C)C(=O)N[C@@H](CO)C(=O)N[C@H](C(=O)N[C@@H](CO)C(=O)N[C@@H](CC(N)=O)C(=O)N1CCC[C@H]1C(=O)N[C@@H](CC(C)C)C(=O)NCC(=O)N[C@@H](Cc1ccccc1)C(=O)N[C@@H](Cc1ccccc1)C(=O)N1CCC[C@H]1C(=O)N[C@@H](CC(=O)O)C(=O)N[C@@H](Cc1c[nH]cn1)C(=O)N[C@@H](CCC(N)=O)C(=O)N[C@@H](CC(C)C)C(=O)N[C@@H](CC(=O)O)C(=O)N1CCC[C@H]1C(=O)N[C@@H](C)C(=O)N[C@@H](Cc1ccccc1)C(=O)N[C@@H](CCCNC(=N)N)C(=O)N[C@@H](C)C(=O)N[C@@H](CC(N)=O)C(=O)N[C@H](C(=O)N[C@@H](C)C(=O)N[C@@H](CC(N)=O)C(=O)N1CCC[C@H]1C(=O)N[C@@H](CC(=O)O)C(=O)N[C@@H](Cc1c[nH]c2ccccc12)C(=O)N[C@@H](CC(=O)O)C(=O)N[C@@H](Cc1ccccc1)C(=O)N[C@@H](CC(N)=O)C(=O)N1CCC[C@H]1C(=O)N[C@@H](CC(N)=O)C(=O)N[C@@H](CCCCN)C(=O)O)[C@@H](C)O)[C@@H](C)O [HBV Myr PreS 2-38]
- inhibitory activity against HBV infection [2, 9]: almost completely blocks HBV infection

Compound: Myristoyl-GLNQSTFNPLGFFPSHQLDPLFKANAGSADWDKNPNKDPWPQAHDTA [WMHBV Myr PreS 2-48]
- comparative inhibitory activity towards HBV infection of human cells ([2]; decreasing peptide concentrations, HBsAg day 10 post-infection, FIG. 4): nearly as efficient as the HBV derived peptide

Compound: CCCCCCCCCCCCCC(=O)NCC(=O)N[C@@H](CCC(N)=O)C(=O)N[C@@H](Cc1c[nH]cn1)C(=O)N1CCC[C@H]1C(=O)N[C@@H](C)C(=O)N[C@@H](CCCCN)C(=O)N[C@@H](CO)C(=O)N[C@@H](CCSC)C(=O)N[C@@H](CC(=O)O)C(=O)N[C@H](C(=O)N[C@@H](CCCNC(=N)N)C(=O)N[C@@H](CCCNC(=N)N)C(=O)N[C@H](C(=O)N[C@@H](CCC(=O)O)C(=O)NCC(=O)NCC(=O)N[C@@H](CCC(=O)O)C(=O)N[C@H](C(=O)N[C@@H](CC(C)C)C(=O)N[C@@H](CC(C)C)C(=O)N[C@@H](CC(N)=O)C(=O)N[C@@H](CCC(N)=O)C(=O)N[C@@H](CC(C)C)C(=O)N[C@@H](C)C(=O)NCC(=O)N[C@@H](CCCNC(=N)N)C(=O)N[C@@H](CCSC)C(=O)N[C@H](C(=O)N1CCC[C@H]1C(=O)N[C@@H](CCCCN)C(=O)NCC(=O)N[C@H](C(=O)N[C@@H](CC(C)C)C(=O)N[C@H](C(=O)N[C@@H](Cc1c[nH]c2ccccc12)C(=O)N[C@@H](CO)C(=O)NCC(=O)N[C@@H](CCCCN)C(=O)N[C@@H](Cc1ccccc1)C(=O)N1CCC[C@H]1C(=O)O)[C@@H](C)O)[C@@H](C)O)[C@@H](C)CC)[C@@H](C)CC)[C@@H](C)CC)C(C)C [DHBV Myr PreS 2-41] (Myristoyl-GQHPAKSMDVRRIEGGEILLNQLAGRMIPKGTLTWSGKFP-OH; C-terminus assumed)
- L protein of DHBV in serum (Western Blot) [3]: not detected
- viral DNA in serum (Dot Blot) [3]: decreased or no longer detectable
- viremia (Dot Blot of viral DNA in serum) [3]: transitory viremia
- activity on HBV infection ([2]; text summary referring to table 1): complete absence of activity
- inhibition of DHBV infection [4]: strong inhibitor
